Results taken from ChEMBL document CHEMBL4251656, “Design, synthesis, and biological evaluation of novel catecholopyrimidine based PDE4 inhibitor for the treatment of atopic dermatitis” (Eur J Med Chem, 2018).
pIC50: −log10 of the molar value. Active and inactive are the calls of the source. The rule behind the calls is not given here.

Assays:
[1] = test system: Mus musculus; assay: Reversal of DNCB-induced atopic dermatitis-like symptoms in Balb/c mouse assessed as reduction in epidermal thickness administered topically once daily starting from day 6 post DNCB treatment up to 34 days by hematoxylin and eosin staining based light microscopic method; format: functional, organism-based
[2] = test system: Mus musculus; assay: Reversal of DNCB-induced atopic dermatitis-like symptoms in Balb/c mouse assessed as reduction in TNF-alpha level in skin administered topically once daily starting from day 6 post DNCB treatment up to 34 days; format: functional, organism-based
[3] = test system: Mus musculus; assay: Reversal of DNCB-induced atopic dermatitis-like symptoms in Balb/c mouse assessed as reduction in skin scaling or dryness administered topically once daily starting from day 6 post DNCB treatment up to 34 days; format: functional, organism-based
[4] = test system: Mus musculus; assay: Reversal of DNCB-induced atopic dermatitis-like symptoms in Balb/c mouse assessed as reduction in edema administered topically once daily starting from day 6 post DNCB treatment up to 34 days; format: functional, organism-based
[5] = test system: Mus musculus; assay: Reversal of DNCB-induced atopic dermatitis-like symptoms in Balb/c mouse assessed as reduction in scratching frequency administered topically once daily starting from day 6 post DNCB treatment up to 34 days; format: functional, organism-based
[6] = test system: Mus musculus; assay: Toxicity in Balb/c mouse assessed as induction of allergy administered topically once daily up to 34 days; format: organism-based; conditions: in vivo, topical_or_ocular, 816 h
[7] = test system: Mus musculus; assay: Reversal of DNCB-induced atopic dermatitis-like symptoms in Balb/c mouse assessed as reduction in inflammatory cell infilteration in epidermal and dermal region of skin administered topically once daily starting from day 6 post DNCB treatment up to 34 days by toluidine blue staining based light microscopic method; format: functional, organism-based
[8] = target: T1, 3',5'-cyclic-AMP phosphodiesterase 4B (Homo sapiens, UniProt Q07343); assay: Inhibition of recombinant human full length N-terminal GST-tagged PDE4B1 expressed in baculovirus infected Sf9 cells using cAMP as substrate after 1 hr by LANCE TR-FRET assay
[9] = species on record: Homo sapiens; assay: Selectivity ratio of IC50 for nhibition of recombinant human N-terminal GST-tagged PDE4D7 (2 to 748 residues) expressed in baculovirus infected Sf9 cells to IC50 for recombinant full length human N-terminal GST-tagged PDE4B1 expressed in baculovirus infected Sf9 cells
[10] = test system: Mus musculus; assay: Reversal of DNCB-induced atopic dermatitis-like symptoms in Balb/c mouse assessed as reduction in hemorrhage administered topically once daily starting from day 6 post DNCB treatment up to 34 days; format: functional, organism-based
[11] = target: Dual 3',5'-cyclic-AMP and -GMP phosphodiesterase 11A (Homo sapiens, UniProt Q9HCR9); assay: Inhibition of PDE11A (unknown origin) using cAMP as substrate after 1 hr by LANCE TR-FRET assay
[12] = test system: Mus musculus; assay: Reversal of DNCB-induced atopic dermatitis-like symptoms in Balb/c mouse assessed as reduction in skin erosion administered topically once daily starting from day 6 post DNCB treatment up to 34 days; format: functional, organism-based
[13] = test system: Mus musculus; assay: Reversal of DNCB-induced atopic dermatitis-like symptoms in Balb/c mouse assessed as reduction in signs of edema administered topically once daily starting from day 6 post DNCB treatment up to 34 days by hematoxylin and eosin staining based light microscopic method; format: functional, organism-based
[14] = test system: Mus musculus; assay: Reversal of DNCB-induced atopic dermatitis-like symptoms in Balb/c mouse assessed as dorsal skin thickness administered topically once daily starting from day 6 post DNCB treatment up to 34 days (reference value: 1.19 millimeter); format: functional
[15] = test system: Mus musculus; assay: Reversal of DNCB-induced atopic dermatitis-like symptoms in Balb/c mouse assessed as reduction in epidermal hyperplasia administered topically once daily starting from day 6 post DNCB treatment up to 34 days by hematoxylin and eosin staining based light microscopic method; format: functional, organism-based
[16] = test system: Mus musculus; assay: Reversal of DNCB-induced atopic dermatitis-like symptoms in Balb/c mouse assessed as reduction in hyperkeratosis administered topically once daily starting from day 6 post DNCB treatment up to 34 days by hematoxylin and eosin staining based light microscopic method; format: functional, organism-based
[17] = test system: Mus musculus; assay: Reversal of DNCB-induced atopic dermatitis-like symptoms in Balb/c mouse assessed as reduction in erythema administered topically once daily starting from day 6 post DNCB treatment up to 34 days; format: functional, organism-based
[18] = test system: Mus musculus; assay: Reversal of DNCB-induced atopic dermatitis-like symptoms in Balb/c mouse assessed as reduction in serum Ig-E level administered topically once daily starting from day 6 post DNCB treatment up to 34 days; format: functional, organism-based
[19] = test system: Mus musculus; assay: Reversal of DNCB-induced atopic dermatitis-like symptoms in Balb/c mouse assessed as reduction in excoriation administered topically once daily starting from day 6 post DNCB treatment up to 34 days; format: functional, organism-based
[20] = target: T2, 3',5'-cyclic-AMP phosphodiesterase 4A (Homo sapiens, UniProt P27815); assay: Inhibition of recombinant full length human N-terminal GST-tagged PDE4A1 expressed in baculovirus infected Sf9 cells using cAMP as substrate after 1 hr by LANCE TR-FRET assay
[21] = test system: Mus musculus; assay: Toxicity in Balb/c mouse assessed as effect on skin architecture administered topically once daily up to 34 days by hematoxylin and eosin staining based light microscopic method; format: organism-based; conditions: in vivo, topical_or_ocular, 816 h
[22] = test system: Mus musculus; assay: Reversal of DNCB-induced atopic dermatitis-like symptoms in Balb/c mouse assessed as reduction in hypertrophy administered topically once daily starting from day 6 post DNCB treatment up to 34 days by hematoxylin and eosin staining based light microscopic method; format: functional, organism-based
[23] = target: T1, 3',5'-cyclic-AMP phosphodiesterase 4B; assay: Inhibition of recombinant full length human N-terminal GST-tagged PDE4B1 expressed in baculovirus infected Sf9 cells using cAMP as substrate after 1 hr by LANCE TR-FRET assay
[24] = target: T2, 3',5'-cyclic-AMP phosphodiesterase 4A; assay: Inhibition of recombinant human N-terminal GST-tagged PDE4A4 (2 to 886 residues) expressed in baculovirus infected Sf9 cells using cAMP as substrate after 1 hr by LANCE TR-FRET assay
[25] = target: 3',5'-cyclic-AMP phosphodiesterase 4D (Homo sapiens, UniProt Q08499); assay: Inhibition of recombinant human N-terminal GST-tagged PDE4D7 (2 to 748 residues) expressed in baculovirus infected Sf9 cells using cAMP as substrate after 1 hr by LANCE TR-FRET assay
[26] = target: 3',5'-cyclic-AMP phosphodiesterase 4C (Homo sapiens, UniProt Q08493); assay: Inhibition of recombinant human full length N-terminal GST-tagged PDE4C1 expressed in baculovirus infected Sf9 cells using cAMP as substrate after 1 hr by LANCE TR-FRET assay
[27] = target: cGMP-inhibited 3',5'-cyclic phosphodiesterase 3B (Homo sapiens, UniProt Q13370); assay: Inhibition of recombinant human N-terminal GST-tagged PDE3B (592-end residues) expressed in baculovirus infected Sf9 cells using cAMP as substrate after 1 hr by LANCE TR-FRET assay

T2 sequence (P27815 whole entry): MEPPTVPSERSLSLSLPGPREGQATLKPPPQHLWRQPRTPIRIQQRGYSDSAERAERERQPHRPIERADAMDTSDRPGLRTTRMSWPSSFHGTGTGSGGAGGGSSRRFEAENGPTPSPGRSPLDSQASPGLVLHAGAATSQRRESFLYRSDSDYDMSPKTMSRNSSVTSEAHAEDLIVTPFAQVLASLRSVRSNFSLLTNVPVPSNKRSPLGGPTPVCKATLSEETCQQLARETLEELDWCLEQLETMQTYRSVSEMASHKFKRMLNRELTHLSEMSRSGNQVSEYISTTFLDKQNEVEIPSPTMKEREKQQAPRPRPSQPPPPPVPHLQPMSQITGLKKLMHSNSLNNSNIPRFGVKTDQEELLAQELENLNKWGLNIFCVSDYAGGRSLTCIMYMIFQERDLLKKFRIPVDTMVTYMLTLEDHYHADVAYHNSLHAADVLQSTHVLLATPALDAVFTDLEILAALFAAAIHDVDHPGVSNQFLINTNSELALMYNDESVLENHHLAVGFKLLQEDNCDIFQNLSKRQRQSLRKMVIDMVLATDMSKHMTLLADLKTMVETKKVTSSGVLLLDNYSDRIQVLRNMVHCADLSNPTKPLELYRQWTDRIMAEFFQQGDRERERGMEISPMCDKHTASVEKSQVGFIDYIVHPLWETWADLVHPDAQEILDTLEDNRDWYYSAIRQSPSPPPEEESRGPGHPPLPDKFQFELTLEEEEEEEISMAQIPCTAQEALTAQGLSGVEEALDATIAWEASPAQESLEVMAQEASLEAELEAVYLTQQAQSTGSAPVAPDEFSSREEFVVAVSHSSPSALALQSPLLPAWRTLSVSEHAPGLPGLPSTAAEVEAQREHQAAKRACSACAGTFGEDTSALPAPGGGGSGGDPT
T1 sequence (Q07343 whole entry, the tested form may be a part): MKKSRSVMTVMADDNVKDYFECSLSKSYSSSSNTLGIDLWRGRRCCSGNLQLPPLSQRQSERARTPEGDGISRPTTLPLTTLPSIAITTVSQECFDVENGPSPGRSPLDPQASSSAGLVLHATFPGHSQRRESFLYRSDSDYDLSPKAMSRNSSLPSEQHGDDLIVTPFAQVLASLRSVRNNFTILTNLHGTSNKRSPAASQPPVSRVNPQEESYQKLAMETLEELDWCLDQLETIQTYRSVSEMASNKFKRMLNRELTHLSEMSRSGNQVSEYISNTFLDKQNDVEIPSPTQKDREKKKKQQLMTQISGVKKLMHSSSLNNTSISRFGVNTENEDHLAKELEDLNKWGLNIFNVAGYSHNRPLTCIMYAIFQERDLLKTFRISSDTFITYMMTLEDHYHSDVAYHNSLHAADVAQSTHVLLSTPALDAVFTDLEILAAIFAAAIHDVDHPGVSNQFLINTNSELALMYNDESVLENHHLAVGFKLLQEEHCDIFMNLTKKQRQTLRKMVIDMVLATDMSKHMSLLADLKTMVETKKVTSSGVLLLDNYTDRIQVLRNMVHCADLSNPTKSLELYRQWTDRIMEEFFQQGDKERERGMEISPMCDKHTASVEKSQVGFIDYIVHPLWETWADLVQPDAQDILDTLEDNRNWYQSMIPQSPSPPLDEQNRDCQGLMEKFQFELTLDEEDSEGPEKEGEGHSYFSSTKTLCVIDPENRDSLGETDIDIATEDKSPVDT
Dual 3',5'-cyclic-AMP and -GMP phosphodiesterase 11A, sequence (Q9HCR9 whole entry): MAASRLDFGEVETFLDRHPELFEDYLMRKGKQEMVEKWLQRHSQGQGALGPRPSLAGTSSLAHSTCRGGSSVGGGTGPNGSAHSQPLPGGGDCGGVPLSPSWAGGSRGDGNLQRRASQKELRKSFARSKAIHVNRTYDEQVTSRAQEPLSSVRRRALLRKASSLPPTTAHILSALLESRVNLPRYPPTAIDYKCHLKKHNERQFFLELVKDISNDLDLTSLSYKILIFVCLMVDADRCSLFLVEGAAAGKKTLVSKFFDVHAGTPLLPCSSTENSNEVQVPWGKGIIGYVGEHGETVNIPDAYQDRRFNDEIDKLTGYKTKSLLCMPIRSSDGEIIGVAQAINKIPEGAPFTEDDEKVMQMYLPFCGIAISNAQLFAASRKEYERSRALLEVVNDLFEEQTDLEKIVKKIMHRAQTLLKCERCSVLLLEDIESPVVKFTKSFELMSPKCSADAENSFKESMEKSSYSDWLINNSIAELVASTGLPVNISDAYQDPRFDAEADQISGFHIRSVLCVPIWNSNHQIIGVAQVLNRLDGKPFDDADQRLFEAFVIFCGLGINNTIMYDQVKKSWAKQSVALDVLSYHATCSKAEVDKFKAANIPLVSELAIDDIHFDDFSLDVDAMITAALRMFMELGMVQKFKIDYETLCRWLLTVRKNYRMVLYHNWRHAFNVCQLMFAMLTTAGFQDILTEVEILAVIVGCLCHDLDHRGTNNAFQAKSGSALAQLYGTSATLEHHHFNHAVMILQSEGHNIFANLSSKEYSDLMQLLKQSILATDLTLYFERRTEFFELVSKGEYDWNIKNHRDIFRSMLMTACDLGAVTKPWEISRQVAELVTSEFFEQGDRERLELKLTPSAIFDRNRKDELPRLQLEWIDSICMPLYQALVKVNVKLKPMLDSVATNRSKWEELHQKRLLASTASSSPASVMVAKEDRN
3',5'-cyclic-AMP phosphodiesterase 4C, sequence (Q08493 whole entry): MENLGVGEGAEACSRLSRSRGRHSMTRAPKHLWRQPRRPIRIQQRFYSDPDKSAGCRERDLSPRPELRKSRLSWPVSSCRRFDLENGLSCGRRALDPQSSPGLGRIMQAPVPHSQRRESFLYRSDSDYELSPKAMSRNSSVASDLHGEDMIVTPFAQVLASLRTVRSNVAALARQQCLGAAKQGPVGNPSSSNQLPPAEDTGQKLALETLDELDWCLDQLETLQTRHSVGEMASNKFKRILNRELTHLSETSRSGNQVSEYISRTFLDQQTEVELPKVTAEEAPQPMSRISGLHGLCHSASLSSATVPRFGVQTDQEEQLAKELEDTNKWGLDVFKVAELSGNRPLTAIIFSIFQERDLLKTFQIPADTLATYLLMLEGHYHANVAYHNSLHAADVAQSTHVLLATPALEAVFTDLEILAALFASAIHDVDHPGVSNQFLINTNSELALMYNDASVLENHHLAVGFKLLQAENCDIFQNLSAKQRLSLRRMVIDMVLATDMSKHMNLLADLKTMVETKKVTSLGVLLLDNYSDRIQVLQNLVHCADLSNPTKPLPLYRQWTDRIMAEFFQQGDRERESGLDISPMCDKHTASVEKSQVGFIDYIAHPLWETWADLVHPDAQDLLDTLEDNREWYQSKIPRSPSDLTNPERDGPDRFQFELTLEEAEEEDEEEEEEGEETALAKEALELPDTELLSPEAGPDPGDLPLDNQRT
3',5'-cyclic-AMP phosphodiesterase 4D, sequence (Q08499 whole entry, the tested form may be a part): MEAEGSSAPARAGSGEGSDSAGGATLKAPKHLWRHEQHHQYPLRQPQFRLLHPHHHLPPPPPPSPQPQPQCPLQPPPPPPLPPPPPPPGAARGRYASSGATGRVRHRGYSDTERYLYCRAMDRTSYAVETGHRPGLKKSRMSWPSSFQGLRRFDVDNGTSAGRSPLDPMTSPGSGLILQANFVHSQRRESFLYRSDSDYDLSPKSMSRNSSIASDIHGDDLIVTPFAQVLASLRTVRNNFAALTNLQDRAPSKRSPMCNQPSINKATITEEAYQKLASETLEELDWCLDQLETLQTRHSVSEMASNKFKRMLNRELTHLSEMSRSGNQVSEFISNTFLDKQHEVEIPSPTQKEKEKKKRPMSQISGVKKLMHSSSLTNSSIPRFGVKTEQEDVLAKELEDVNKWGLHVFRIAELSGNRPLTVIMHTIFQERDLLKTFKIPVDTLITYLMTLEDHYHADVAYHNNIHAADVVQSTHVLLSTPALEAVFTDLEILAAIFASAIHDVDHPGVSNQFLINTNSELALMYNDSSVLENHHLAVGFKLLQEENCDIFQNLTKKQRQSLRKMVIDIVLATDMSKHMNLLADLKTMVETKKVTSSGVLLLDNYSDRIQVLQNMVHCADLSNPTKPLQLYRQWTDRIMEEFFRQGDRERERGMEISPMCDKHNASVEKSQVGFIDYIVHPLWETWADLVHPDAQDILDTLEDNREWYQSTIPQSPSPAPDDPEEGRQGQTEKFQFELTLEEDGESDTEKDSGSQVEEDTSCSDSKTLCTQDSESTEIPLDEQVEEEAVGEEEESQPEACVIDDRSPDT

Compound	pIC50 [8]	pIC50 [11]	pIC50 [20]	pIC50 [23]	pIC50 [24]	pIC50 [25]	pIC50 [26]	further results
COc1ccc(-c2nc(C(F)(F)F)ncc2C(=O)Nc2ccncc2)cc1OC	7.82	6.60	7.01					Activity [1]: Active; Activity [2]: Active; Activity [3]: Active; Activity [4]: Active; Activity [5]: Active; Activity [6]: Non-Toxic; Activity [7]: Active; Ratio IC50 [9]: 7; Activity [10]: Active; Activity [12]: Active; Activity [13]: Active; Activity [14]: 0.71 mm; Activity [15]: Active; Activity [16]: Active; Activity [17]: Active; Activity [18]: Active; Activity [19]: Active; Activity [21]: Non-Toxic; Activity [22]: Active
COc1ccc(CCNC(=O)c2cnc(SC)nc2N2CCOCC2)cc1OC	7.21	6.18		7.21	6.55	6.87	6.49	
COc1ccc(CCNC(=O)c2cnc(C(F)(F)F)nc2N2CCOCC2)cc1OC				6.82				
COc1ccc(-c2nc(C(F)(F)F)ncc2C(=O)Nc2c(Cl)cncc2Cl)cc1OC	7.36	6.61	6.55		7.05	6.44	7.41	pIC50 [27]: 6.49
COc1ccc(-c2nc(C(F)(F)F)ncc2C(=O)Nc2c(C(C)C)cccc2C(C)C)cc1OC				6.65				

Now from value to molecule, other results behind:

pIC50 [8]	pIC50 [11]	pIC50 [20]	pIC50 [23]	pIC50 [24]	pIC50 [25]	pIC50 [26]	Compound	further results
			6.62				COc1ccc(CCNC(=O)c2cnc(SC)nc2N2CCN(CCO)CC2)cc1OC	
7.17	5.82	6.17		7.00	6.41	6.81	COc1ccc(NC(=O)c2cnc(C(F)(F)F)nc2N2CCOCC2)cc1OC	pIC50 [27]: 6.02
7.51	6.32	6.12					COc1ccc(NC(=O)c2cnc(SC)nc2N2CCOCC2)cc1OC	
